We go through 1 compound from ChEMBL document CHEMBL5678818, “Discovery of potent SOS1 inhibitors that block RAS activation via disruption of the RAS-SOS1 interaction” (Proc Natl Acad Sci U S A, 2019).

The target of assay [1] is Serine/threonine-protein kinase PAK 6 (Homo sapiens) (UniProt Q9NQU5). Description: Inhibition of PAK6 (unknown origin) assessed as residual activity at 100 nM by KINOMEscan analysis relative to control.
For assay [2], the target named is Receptor tyrosine-protein kinase erbB-2 (Homo sapiens) (UniProt P04626). Description: Inhibition of ERBB2 (unknown origin) assessed as residual activity at 100 nM by KINOMEscan analysis relative to control.
Chain of Receptor tyrosine-protein kinase erbB-2 (Homo sapiens) (P04626 whole entry): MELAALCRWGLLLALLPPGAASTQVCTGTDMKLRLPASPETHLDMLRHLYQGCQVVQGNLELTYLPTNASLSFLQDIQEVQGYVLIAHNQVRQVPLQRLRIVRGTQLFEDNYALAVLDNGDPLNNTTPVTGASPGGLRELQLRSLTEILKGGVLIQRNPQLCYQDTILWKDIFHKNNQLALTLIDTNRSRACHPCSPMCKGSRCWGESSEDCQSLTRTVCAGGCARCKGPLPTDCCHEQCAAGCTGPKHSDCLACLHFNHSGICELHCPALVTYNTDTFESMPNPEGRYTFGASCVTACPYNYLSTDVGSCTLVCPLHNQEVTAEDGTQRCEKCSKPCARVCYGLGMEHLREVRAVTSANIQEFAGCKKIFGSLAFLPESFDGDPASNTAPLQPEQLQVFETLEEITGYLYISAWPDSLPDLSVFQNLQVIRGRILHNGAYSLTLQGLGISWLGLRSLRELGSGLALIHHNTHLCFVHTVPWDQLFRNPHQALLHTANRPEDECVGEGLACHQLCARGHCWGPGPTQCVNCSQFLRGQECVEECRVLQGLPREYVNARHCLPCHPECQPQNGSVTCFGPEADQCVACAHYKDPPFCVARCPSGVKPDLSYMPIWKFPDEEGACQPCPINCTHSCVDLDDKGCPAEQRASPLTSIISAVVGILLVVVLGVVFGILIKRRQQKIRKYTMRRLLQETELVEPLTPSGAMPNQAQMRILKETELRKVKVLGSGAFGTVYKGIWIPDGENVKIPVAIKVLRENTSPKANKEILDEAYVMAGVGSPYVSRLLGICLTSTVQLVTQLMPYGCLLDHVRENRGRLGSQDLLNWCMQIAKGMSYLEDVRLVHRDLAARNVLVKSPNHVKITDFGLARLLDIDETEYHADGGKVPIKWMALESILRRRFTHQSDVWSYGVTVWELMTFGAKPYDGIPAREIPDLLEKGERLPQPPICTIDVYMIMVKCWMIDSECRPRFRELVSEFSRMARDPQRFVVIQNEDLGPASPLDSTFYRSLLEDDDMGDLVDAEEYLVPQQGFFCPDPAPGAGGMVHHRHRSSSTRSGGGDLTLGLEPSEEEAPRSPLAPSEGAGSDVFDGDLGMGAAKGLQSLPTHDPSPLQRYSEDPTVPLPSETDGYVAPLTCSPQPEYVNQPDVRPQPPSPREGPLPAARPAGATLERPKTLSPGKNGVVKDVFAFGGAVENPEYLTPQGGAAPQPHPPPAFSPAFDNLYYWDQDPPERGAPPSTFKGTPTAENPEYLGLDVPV
Assay [3] deals with Serine/threonine-protein kinase SIK3 (Homo sapiens) (UniProt Q9Y2K2). The experiment in a line: Inhibition of QSK (unknown origin) assessed as residual activity at 100 nM by KINOMEscan analysis relative to control.
Chain of Serine/threonine-protein kinase SIK3 (Homo sapiens) (Q9Y2K2 whole entry, looked up): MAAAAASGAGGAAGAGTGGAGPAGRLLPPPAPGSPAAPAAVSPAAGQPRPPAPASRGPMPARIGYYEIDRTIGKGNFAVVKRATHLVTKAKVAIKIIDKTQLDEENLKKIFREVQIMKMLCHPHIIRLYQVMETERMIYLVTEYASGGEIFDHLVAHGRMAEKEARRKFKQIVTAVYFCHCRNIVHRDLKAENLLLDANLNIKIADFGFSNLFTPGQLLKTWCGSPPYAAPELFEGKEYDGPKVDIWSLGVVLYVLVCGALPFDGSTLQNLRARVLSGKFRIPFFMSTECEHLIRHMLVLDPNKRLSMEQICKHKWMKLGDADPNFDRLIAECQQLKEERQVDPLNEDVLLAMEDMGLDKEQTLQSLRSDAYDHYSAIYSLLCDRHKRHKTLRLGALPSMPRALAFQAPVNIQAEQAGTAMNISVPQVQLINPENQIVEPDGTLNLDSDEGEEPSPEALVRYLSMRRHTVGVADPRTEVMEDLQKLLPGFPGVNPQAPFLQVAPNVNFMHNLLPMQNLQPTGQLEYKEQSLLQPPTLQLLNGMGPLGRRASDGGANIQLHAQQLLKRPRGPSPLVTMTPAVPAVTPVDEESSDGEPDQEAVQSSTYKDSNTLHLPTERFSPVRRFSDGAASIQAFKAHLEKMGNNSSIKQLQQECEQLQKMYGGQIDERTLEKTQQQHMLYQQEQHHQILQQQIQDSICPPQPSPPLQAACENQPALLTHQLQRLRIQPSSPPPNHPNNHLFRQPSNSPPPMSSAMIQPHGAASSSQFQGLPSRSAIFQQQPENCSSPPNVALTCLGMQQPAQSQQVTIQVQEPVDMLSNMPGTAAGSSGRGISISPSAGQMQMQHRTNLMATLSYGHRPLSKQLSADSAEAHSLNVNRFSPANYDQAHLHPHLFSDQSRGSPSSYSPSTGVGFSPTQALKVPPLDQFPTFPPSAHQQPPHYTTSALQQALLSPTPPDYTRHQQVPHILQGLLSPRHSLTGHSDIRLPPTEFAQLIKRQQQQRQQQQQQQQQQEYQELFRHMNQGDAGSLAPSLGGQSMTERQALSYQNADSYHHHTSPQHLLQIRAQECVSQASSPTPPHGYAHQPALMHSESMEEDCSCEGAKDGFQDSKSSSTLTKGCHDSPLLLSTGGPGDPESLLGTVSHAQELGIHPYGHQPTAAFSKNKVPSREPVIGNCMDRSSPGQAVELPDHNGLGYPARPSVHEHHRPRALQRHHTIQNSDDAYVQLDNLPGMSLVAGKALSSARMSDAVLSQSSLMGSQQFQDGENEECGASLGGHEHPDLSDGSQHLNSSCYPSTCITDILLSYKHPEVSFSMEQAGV
Assay [4] concerns the target TGF-beta receptor type-2 (Homo sapiens) (UniProt P37173). Description: Inhibition of TGFBR2 (unknown origin) assessed as residual activity at 100 nM by KINOMEscan analysis relative to control.
The subject of assay [5] is Epidermal growth factor receptor (Homo sapiens), P00533 [UNDEFINED MUTATION]. Description: Inhibition of EGFR L747-S752del/P753S mutant (unknown origin) assessed as residual activity at 100 nM by KINOMEscan analysis relative to control.
Assay [6] concerns the target T1, Serine/threonine-protein kinase STK11 (Homo sapiens) (UniProt Q15831).
T1 sequence (whole entry): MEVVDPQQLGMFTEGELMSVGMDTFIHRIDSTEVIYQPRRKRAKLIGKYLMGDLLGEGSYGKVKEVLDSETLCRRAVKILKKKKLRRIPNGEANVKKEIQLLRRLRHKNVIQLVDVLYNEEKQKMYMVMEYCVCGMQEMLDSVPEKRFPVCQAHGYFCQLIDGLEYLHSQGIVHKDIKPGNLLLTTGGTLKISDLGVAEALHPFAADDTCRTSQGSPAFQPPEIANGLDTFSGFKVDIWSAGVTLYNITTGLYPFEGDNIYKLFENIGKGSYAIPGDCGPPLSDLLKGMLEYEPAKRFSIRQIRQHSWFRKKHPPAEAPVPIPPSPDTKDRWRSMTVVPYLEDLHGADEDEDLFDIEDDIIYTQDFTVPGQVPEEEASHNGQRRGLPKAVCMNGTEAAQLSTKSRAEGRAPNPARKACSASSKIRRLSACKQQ
Description: Inhibition of LKB1 (unknown origin) assessed as residual activity at 100 nM by KINOMEscan analysis relative to control.

Assay [7] deals with T2, TGF-beta receptor type-1 (Homo sapiens) (UniProt P36897).
T2 sequence (whole entry): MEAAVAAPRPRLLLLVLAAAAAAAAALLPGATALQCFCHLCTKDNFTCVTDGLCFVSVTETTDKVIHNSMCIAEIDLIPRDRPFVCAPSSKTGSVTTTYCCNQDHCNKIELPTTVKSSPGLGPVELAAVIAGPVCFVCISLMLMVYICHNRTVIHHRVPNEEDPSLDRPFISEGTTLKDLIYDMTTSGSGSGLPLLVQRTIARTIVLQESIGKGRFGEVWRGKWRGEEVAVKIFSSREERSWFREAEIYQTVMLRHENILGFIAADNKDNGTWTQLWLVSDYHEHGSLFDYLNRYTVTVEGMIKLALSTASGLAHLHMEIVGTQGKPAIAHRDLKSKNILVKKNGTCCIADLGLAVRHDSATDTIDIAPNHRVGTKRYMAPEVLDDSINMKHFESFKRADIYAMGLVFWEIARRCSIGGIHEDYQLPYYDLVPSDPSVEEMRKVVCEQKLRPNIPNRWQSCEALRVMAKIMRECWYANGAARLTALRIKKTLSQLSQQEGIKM
The experiment in a line: Inhibition of TGFBR1 (unknown origin) assessed as residual activity at 100 nM by KINOMEscan analysis relative to control.

Assay [8] deals with Angiopoietin-1 receptor (Homo sapiens) (UniProt Q02763). Description: Inhibition of TIE2 (unknown origin) assessed as residual activity at 100 nM by KINOMEscan analysis relative to control.
Assay [9] addresses Leucine-rich repeat serine/threonine-protein kinase 2 (Homo sapiens) (UniProt Q5S007). Description: Inhibition of LRRK2 (unknown origin) assessed as residual activity at 100 nM by KINOMEscan analysis relative to control.
Assay [10] has as its target T3, Rhodopsin kinase GRK7 (Homo sapiens) (UniProt Q8WTQ7).
T3 sequence (whole entry): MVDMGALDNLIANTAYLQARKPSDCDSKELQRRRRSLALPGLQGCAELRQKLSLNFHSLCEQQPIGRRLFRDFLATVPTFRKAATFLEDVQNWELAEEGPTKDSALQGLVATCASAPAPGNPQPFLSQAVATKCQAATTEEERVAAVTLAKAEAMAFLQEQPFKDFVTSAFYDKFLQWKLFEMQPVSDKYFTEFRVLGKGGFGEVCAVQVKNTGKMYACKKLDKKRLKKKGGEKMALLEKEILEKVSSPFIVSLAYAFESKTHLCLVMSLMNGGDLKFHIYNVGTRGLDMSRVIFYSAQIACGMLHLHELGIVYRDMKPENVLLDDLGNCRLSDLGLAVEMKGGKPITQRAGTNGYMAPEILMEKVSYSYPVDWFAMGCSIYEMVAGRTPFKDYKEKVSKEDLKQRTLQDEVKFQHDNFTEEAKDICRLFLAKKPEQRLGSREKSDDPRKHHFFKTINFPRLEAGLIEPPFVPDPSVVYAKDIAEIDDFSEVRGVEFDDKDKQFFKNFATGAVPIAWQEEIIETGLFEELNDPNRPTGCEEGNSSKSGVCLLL
The experiment in a line: Inhibition of GRK7 (unknown origin) assessed as residual activity at 100 nM by KINOMEscan analysis relative to control.

Assay [11] addresses Cyclin-dependent kinase 17 (Homo sapiens) (UniProt Q00537). Description: Inhibition of PCTK2 (unknown origin) assessed as residual activity at 100 nM by KINOMEscan analysis relative to control.

Chain of TGF-beta receptor type-2 (Homo sapiens) (P37173 whole entry): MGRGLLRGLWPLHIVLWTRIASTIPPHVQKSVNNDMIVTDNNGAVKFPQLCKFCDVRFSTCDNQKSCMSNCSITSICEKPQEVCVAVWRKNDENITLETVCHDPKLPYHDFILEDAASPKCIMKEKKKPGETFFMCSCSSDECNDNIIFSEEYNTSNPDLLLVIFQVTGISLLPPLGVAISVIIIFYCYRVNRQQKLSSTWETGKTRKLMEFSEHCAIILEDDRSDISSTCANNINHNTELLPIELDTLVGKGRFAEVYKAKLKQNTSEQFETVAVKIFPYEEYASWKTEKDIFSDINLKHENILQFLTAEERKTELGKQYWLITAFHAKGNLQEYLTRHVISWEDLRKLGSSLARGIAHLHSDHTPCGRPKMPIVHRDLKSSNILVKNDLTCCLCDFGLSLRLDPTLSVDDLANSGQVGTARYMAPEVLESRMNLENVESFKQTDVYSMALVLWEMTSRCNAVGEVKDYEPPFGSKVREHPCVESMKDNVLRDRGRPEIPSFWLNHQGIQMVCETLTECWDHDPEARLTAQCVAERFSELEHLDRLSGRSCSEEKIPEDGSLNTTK
Chain of Serine/threonine-protein kinase PAK 6 (Homo sapiens) (Q9NQU5 whole entry, looked up): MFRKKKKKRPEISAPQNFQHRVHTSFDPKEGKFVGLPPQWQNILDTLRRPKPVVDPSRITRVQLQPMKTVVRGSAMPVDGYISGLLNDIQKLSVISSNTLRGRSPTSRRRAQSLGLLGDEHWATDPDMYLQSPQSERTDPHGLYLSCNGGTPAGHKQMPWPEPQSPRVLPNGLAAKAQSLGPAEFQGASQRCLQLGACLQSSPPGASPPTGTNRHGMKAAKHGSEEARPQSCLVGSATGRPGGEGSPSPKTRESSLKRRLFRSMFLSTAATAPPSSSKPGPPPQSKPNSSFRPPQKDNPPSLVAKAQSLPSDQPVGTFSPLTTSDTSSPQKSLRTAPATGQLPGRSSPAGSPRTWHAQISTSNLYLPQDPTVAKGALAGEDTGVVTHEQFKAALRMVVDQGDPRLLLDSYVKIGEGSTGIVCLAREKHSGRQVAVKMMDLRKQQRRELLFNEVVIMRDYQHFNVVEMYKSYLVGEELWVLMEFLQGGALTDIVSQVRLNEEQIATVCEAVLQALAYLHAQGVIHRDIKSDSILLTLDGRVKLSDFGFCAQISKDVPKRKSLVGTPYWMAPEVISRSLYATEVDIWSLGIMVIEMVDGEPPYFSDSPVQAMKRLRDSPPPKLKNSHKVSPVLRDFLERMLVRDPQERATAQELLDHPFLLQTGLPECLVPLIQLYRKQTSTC
Chain of Cyclin-dependent kinase 17 (Homo sapiens) (Q00537 whole entry, looked up): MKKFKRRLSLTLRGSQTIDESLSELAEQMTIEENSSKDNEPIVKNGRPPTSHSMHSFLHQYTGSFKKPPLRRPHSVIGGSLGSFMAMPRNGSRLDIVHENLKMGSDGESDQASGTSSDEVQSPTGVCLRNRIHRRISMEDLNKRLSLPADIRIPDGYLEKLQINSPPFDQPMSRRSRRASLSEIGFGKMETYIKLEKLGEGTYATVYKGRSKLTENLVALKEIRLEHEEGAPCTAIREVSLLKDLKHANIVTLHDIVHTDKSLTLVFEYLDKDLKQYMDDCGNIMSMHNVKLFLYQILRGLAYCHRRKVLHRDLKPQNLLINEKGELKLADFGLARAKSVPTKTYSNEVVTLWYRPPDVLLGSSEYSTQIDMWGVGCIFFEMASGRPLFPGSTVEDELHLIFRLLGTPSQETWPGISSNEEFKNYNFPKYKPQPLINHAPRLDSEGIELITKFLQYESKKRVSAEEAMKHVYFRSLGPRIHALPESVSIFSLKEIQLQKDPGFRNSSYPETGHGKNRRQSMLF

For `COc1cc2ncnc(N[C@H](C)c3cccc4ccccc34)c2cc1OC`, the Activity was 92% in assay [1]; 84% in assay [2]; 94% in [3]; 93% in assay [4]; 90% in assay [5]; 100% in assay [6]. Besides, the Activity in assay [7] is 83%; in assay [8] it was 68%; in assay [9], 82%; in assay [10] it was 84%; in [11] it was 86%.
